The text below walks through data of US20070015723A1, “Antiviral oligonucleotides having a conserved G4 core sequence” (priority 1992, published 2007).

For one data set, the target named is CD4/gp120 interaction (Human immunodeficiency virus type 1 group M subtype B, UniProt P03375). The note with it: ELISA; Callahan et al.; cited from earlier work. In general terms: ELISA stands for enzyme-linked immunosorbent assay.
The next data set concerns HSV-2 strain E194. Format: cell-based.
The subject of data set [1] is Adenovirus, Type 5 (A-5), strain Adenoid 75. The format is cell-based.
A further data set deals with vaccinia virus. The format is cell-based.
In data set [2] the test system is respiratory syncytial virus (RSV) strain Long. The format is cell-based.
The test system of data set [3] is rhinovirus 2 (R-2), strain HGP. The format is cell-based, human rhinovirus.
Data set [4] deals with influenza strain A/NWS/33 (H1N1). The format is cell-based, influenza virus.
Data set [5] relates to HSV-1 (KOS). Nature of the data set: Effect of time of oligonucleotide addition on HSV-1 inhibition (NHDF cells, ELISA). The format is cell-based. Details: dose or concentration left out as unconfirmed. The note with it: added at the time of virus infection (t=0).
For data set [6], the system named is HSV-1 (KOS). Nature of the data set: HSV-1 infection ELISA assay. The note with it: 50% inhibition of HSV replication relative to control infected cells; Table 1. Format: cell-based.
Data set [7] has as its system HSV-1 (KOS). Nature of the data set: HSV-1 virus yield assay. The format is cell-based. The note with it: FIG. 2.
The next data set relates to varicella zoster virus. Format: cell-based.
For another data set, the system named is HIV. The format is cell-based.
The next data set concerns HIV-1IIIB. Nature of the data set: Acute HIV infection assay (XTT, CEM cells). The note with it: for IC50: inhibition of HIV. For orientation: Tetrazolium dyes change colour on reduction, which living cells bring about.
The subject of another data set is CEM cell line. Nature of the data set: Cytotoxicity (TC50) alongside acute HIV infection assay.
Data set [8] deals with T1, human type II phospholipase A2 (Homo sapiens, UniProt P14555).
T1 sequence (P14555 21-144): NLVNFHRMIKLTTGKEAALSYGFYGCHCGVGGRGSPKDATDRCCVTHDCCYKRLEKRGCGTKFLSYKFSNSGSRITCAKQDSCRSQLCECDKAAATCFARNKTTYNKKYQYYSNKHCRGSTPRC
Description: Human type II phospholipase A2 enzyme assay (3H-oleic acid labelled E. coli substrate). The format is biochemical.

For data set [9], the system named is Phospholipase A2 isolated from the venom of Trimeresurus flavoridis. Nature of the data set: Phospholipase A2 enzyme assay, Trimeresurus flavoridis venom enzyme. The format is biochemical.
Data set [10] has as its system Crotalus durissus terrificus phospholipase A2.
In data set [11] the target is Bovine pancreatic phospholipase A2 (Bos taurus, UniProt P00593).
Data set [12] addresses Apis mellifera phospholipase A2 (Apis mellifera, UniProt P00630).

“And” between values parts separate entries of the source, which are not always exact repeats. Equal entries are not always repeated. Where only a bound is given, the exact number is not on record here.

Sequence of Bovine pancreatic phospholipase A2 (P00593 23-145): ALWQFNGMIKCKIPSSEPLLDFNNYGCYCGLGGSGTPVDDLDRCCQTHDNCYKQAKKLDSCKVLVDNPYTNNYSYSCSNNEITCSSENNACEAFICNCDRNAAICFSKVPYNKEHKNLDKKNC

On to Dextran sulfate, for which, on CD4/gp120 interaction, the “effect on the gp120/CD4 interaction” value was “does not prevent the gp120/CD4 interaction”.

“ISIS 3383: scrambled version of ISIS 1082, SEQ ID NO: 122; negative control oligonucleotide (TGGGCACGTGCCTGACACGGC; chemistry not given here)”: the ED50 is 2800 nM in the data set on HSV-2 strain E194; above 100000 nM in [1]; above 100000 nM with vaccinia virus; 700 nM in data set [2]; above 100000 nM in data set [3]; 19000 nM in data set [4]. The TI with HSV-2 strain E194 is reported as above 36; in [2], 60; in data set [4], above 5. The “inhibition of HSV replication” value in the data set with HSV-1 (KOS) [5] is “inhibited HSV replication”.

In general, EC50 refers to the concentration at which the effect is half-maximal. One may read the IC50 as the concentration that gives 50% inhibition. As for “ISIS 5652: TT GGGG TT GGGG TT GGGG TT, P = S, SEQ ID NO 37 (TTGGGGTTGGGGTTGGGGTT; all phosphorothioate, sugars by position not given here)”, in the data set on HSV-1 (KOS) [6], the EC50 turned out to be 160 nM. Also, in the data set on HSV-1 (KOS) [7], the “anti-HSV activity in virus yield assay” value was “dose-dependent anti-HSV activity”. In addition, the ED50 in the data set on HSV-2 strain E194 is 300 nM; in the data set on varicella zoster virus, 18000 nM; in [1], above 100000 nM; in [2] it was 1900 nM; in [3], above 100000 nM; with HIV, 180 nM. This substance displayed an ED50 in data set [4] of 600 nM. Further, the TI is above 333 in the data set on HSV-2 strain E194; below 1.0 in [1]; above 53 in data set [2]; 227 with HIV; 93 in [4]. Moreover, the “TI (TC50/IC50)” value with HIV-1IIIB is listed as 227. For the same substance, the IC50 with HIV-1IIIB is 100 nM and 180 nM.

The substance “ISIS 4721: CAC GGG GTC G, P = S, SEQ ID NO 32 (CACGGGGTCG; all phosphorothioate, sugars by position and methylation of C not given here)” gave an EC50 in the data set with HSV-1 (KOS) [6] of 400 nM. Further, in the data set with HIV-1IIIB, the “TI (TC50/IC50)” value is 546; the half-inhibitory concentration (IC50) was 210 nM and 260 nM. The TC50 in the data set with CEM cell line turned out to be 142000 nM.

In the data set with HSV-1 (KOS) [6], “ISIS 3196: GGG T GGG T ATA G AAG G GCT CC, P = S, SEQ ID NO 47 (GGGTGGGTATAGAAGGGCTCC; all phosphorothioate, sugars by position and methylation of C not given here)” displayed an EC50 of 200 nM. In addition, in [8] (1 μM), the “inhibition of human type II phospholipase A2” value is on record as “completely inhibited”. Also, the “% Inhibition (1 μM)” value was 98.5% in data set [8] (1 μM, Table 4); 100% and 76.2% in data set [8] (1 μM, Table 5, two separate experiments). For the same substance, the IC50 in data set [8] (FIG. 5) is around 150 nM; in data set [9] it was above 10000 nM; in [10], around 300 nM; in [11], around 100000 nM; in data set [12], above 100000 nM. Moreover, the “effect on substrate kinetics” value in data set [8] (increasing E. coli substrate, ISIS 3481 at 0.2 μM and 2 μM) is recorded as “apparent noncompetitive inhibitor”. The “inhibitory activity (% inhibition)” value in data set [8] (not boiled) is on record as 94%; in data set [8] (placed in boiling water for 15 minutes prior to assay), 21%.
